These results are taken from PMC7048302, “Deep Learning-driven research for drug discovery: Tackling Malaria” (PLoS Computational Biology, 2020).

Each structure is given as a SMILES string. “Also recorded” adds a separate entry of the source. Like-named read-outs stand apart in the source and are kept apart here. Where only a bound is given, the exact number is not on record here.

Series [1] has as its system P. falciparum 3D7 strain (chloroquine sensitive). To be noted: S3 File, continuous QSAR dataset; ref ChEMBL CHEMBL2366922 [25]; cited from earlier work.
Series [2] has as its system mouse embryonic fibroblasts (NIH/3T3 cell line). The settings on record: S4 File, continuous QSAR dataset; ref ChEMBL CHEMBL614822 [25]; cited from earlier work.
Another series concerns P. falciparum W2 strain. The series can be described thus: Antiplasmodial assay (SYBR Green), multi-drug-resistant strain. It counts as cell-based, Plasmodium falciparum. To be noted: for EC50: Plasmodium falciparum, read-out: EC50 (PfW2); for SI^b: Selectivity index calculated by COS7 CC50/W2 EC50. The procedure:
(§1) The 3D7 and W2 strains were cultured in RPMI 1640 medium supplemented with 0.05 mg/mL gentamycin, 38.4 mM HEPES, 0.2% sodium bicarbonate, and 10% O^+ human serum, as previously described in standardized protocol. Then, erythrocytes were added to the culture to obtain a 5% of hematocrit, and incubated at 37°C under 5% CO2 atmosphere, with daily exchange of medium. The parasitemia was monitored daily in smears, stained with Giemsa. Synchronic cultures in ring stage were obtained by two consecutive treatments, at 48h intervals with a 5% solution of D-sorbitol.
(§2) Parasites synchronized at the ring stage, with 0.5% parasitemia and 2% hematocrit, were distributed in the wells of a 96-well plate. The compounds were tested in triplicates using 12-point dilution series (0.019 μM– 40 μM) over 72h. Chloroquine and pyrimethamine were used as positive controls. The in vitro susceptibility of parasite to tested drugs was measured by SYBR Green according to Hartwig and colleagues. Briefly, 100 μL of lysis buffer (20 mM Tris, 5 mM EDTA, 0,008% wt/vol saponin, 0,08% vol/vol Triton X-100 and 0.4 μL/mL of SYBR Green) were added in each well of a new black 96-well plate and 100 μL of parasite culture incubated with drugs were transferred. After homogenization, the plates were incubated for 1h in the dark. Fluorescence was measured at 490 nm excitation and 540 nm emission (CLARIOstar, Labtech BMG).
(§3) The EC50 and CC50 values were calculated by plotting the Log doses vs. inhibition (expressed as a percentage relative to the control) in GraphPad Prism v.6 (GraphPad Software, La Jolla California USA, www.graphpad.com).

Another series has as its system P. falciparum 3D7 strain. Nature of the series: Antiplasmodial assay (SYBR Green), sensitive strain. The class given is cell-based, Plasmodium falciparum. To be noted: for EC50: Plasmodium falciparum; for antiplasmodial activity (concentration range in words): asexual blood stages, 3D7 and W2 strains; for SI^a: Selectivity index calculated by COS7 CC50/3D7 EC50. The protocol: as §1, §2, §3

Series [3] in a line: Cytotoxicity assay (MTT reduction). To be noted: monkey, COS-7 cells (fibroblast-like monkey kidney cell line); 72 hours, mean ± SD of three independent assays. It counts as cell-based, monkey. The protocol:
(§4) Cytotoxicity assays used fibroblast-like cell lines derived from monkey kidney tissue (COS7 cells), grown in DMEM medium supplemented with 10% fetal bovine serum and 0.05 mg/mL gentamicin in atmosphere containing 5% CO2 at 37°C. […] After an incubation period (72 hours), cell viability analysis was performed via the MMT reduction method (3- [4,5- dimethyl-thiazol-2-yl] -2,5-diphenyltetrazolium […]).
as §3

The subject of another series is COS-7 cells. Nature of the series: Cytotoxicity assay (MTT reduction). To be noted: in words. It counts as cell-based, monkey. The procedure: as §4, §3
[4] abbreviates: W2, asexual blood stage, 72h, mean ± SD of three independent assays.
Where [5] appears, read: 3D7, asexual blood stage, 72h, mean ± SD of three independent assays, read-out: EC50 (Pf3D7).
[6] abbreviates: 3D7, asexual blood stages of sensitive and multi-drug-resistant strains, read-out: EC50.

For `Cc1ccc(-c2ccc(-c3ccc(C(=N)N)cc3)o2)cc1`, in series [1], the pEC50 is 10.24.
Regarding `CC1CCC2C(C)C(O)OC3OC4(C)CCC1C32OO4` (centres unmarked), the pEC50 in series [1] was 10.00.
In the case of `COc1ccc(-c2ccc(-c3ccc(C(=N)N)cc3)o2)cc1`, the pEC50 in series [1] is on record as 9.86.
As for `Cn1cncc1C(O)C1=Cc2cccnc2C(N2CCN(C(=O)NC(C)(C)C)CC2)c2ccc(Cl)cc21` (centres unmarked), in series [2], the pCC50 is 9.30.
For `Cn1cncc1C(OCc1ccc(C#N)cc1C#Cc1ccccc1)c1ccc(C#N)cc1` (centres unmarked), the pCC50 in series [2] is recorded as 10.00.
Take `N=C(N)c1ccc(-c2ccc(-c3ccc(F)cc3)o2)cc1`: in series [1], the pEC50 is listed as 11.02.
For the compound `CCN(CC)CCCC(C)Nc1ccnc2cc(Cl)ccc12` (centres unmarked) [Chloroquine, chloroquine, reference compound], the concentration giving a half-maximal response (EC50) with P. falciparum W2 strain (W2, 72 h) is 173 ± 20 nM; in the series with P. falciparum 3D7 strain (3D7, 72 h, read-out: EC50 (Pf3D7)), 11 ± 1 nM.
For the compound `CC1(C)NC(C2=NOC(C)(C)N2)=NO1` [LabMol-148], the EC50 with P. falciparum W2 strain (setting [4]) and with P. falciparum 3D7 strain (setting [5]) was more than 40000 nM in each case. Besides, the CC50 at 72 h in series [3] was more than 200 µM.
Take `Oc1ccccc1C1N=C(c2ccccc2)N=C(c2ccccc2)N1` (centres unmarked) [LabMol-149, 2-(4,6-diphenyl-1,2-dihydro-1,3,5-triazin-2-yl)phenol]: the EC50 is 509 ± 177 nM in the series on P. falciparum W2 strain (setting [4]), 1450 ± 524 nM in the series with P. falciparum 3D7 strain (setting [5]) and less than 500 nM in the series with P. falciparum 3D7 strain (setting [6]). For the same compound, in the series with P. falciparum W2 strain, the “SI^b” value was more than 196. In addition, the “antiplasmodial activity (concentration range in words)” value (from here on “antiplasmodial activity”) in the series with P. falciparum 3D7 strain was “submicromolar and low nanomolar range; also recorded: activity at submicromolar concentrations”. In series [3], the CC50 at 72 h is more than 100 µM. Further, the “cytotoxicity in mammalian cells” value with COS-7 cells is on record as “low cytotoxicity”.
`Nc1cc(N)nc(N2CCOCC2)n1` [LabMol-150]: the EC50 in the series on P. falciparum W2 strain (setting [4]) and in the series on P. falciparum 3D7 strain (setting [5]) was more than 40000 nM each time. The compound also came in with a CC50 at 72 h in series [3] of more than 200 µM.
For the compound `CC(=O)N(C1=C(N2CCOCC2)C(=O)c2ccccc2C1=O)c1ccc(C(=O)O)cc1` [LabMol-151, 4-{N-[3-(morpholin-4-yl)-1,4-dioxo-1,4-dihydronaphthalen-2-yl]acetamido}benzoic acid], the EC50 came out at 1620 ± 321 nM in the series with P. falciparum W2 strain (setting [4]) and 1910 ± 292 nM in the series with P. falciparum 3D7 strain (setting [5]). In the series on P. falciparum W2 strain, the “SI^b” value is listed as 87.1. Also, in the series with P. falciparum 3D7 strain, the “SI^a” value is reported as 73.7. The “antiplasmodial activity” value in the series on P. falciparum 3D7 strain is “submicromolar and low nanomolar range; also recorded: activity at submicromolar concentrations”. Also, the CC50 at 72 h in series [3] was 141 ± 11.2 µM. Moreover, in the series with COS-7 cells, the “cytotoxicity in mammalian cells” value is given as “low cytotoxicity”.
For the compound `Fc1cccc(Nc2nc(NCC3CCCO3)c3ccccc3n2)c1` (centres unmarked) [LabMol-152, N2-(3-fluorophenyl)-N4-[(oxolan-2-yl)methyl]quinazoline-2,4-diamine], the EC50 in the series on P. falciparum W2 strain (setting [4]) is 78 ± 14 nM; in the series with P. falciparum 3D7 strain (setting [5]), 49 ± 29 nM; in the series with P. falciparum 3D7 strain (setting [6]), less than 500 nM. Also, in the series on P. falciparum W2 strain, the “SI^b” value is 214.1. Further, in the series on P. falciparum 3D7 strain, the “SI^a” value is given as 340.8. The “antiplasmodial activity” value in the series with P. falciparum 3D7 strain is “submicromolar and low nanomolar range”. Further, the CC50 at 72 h in series [3] was determined as 16.7 ± 10.3 µM. In addition, the “cytotoxicity in mammalian cells” value in the series on COS-7 cells is listed as “low cytotoxicity”.
`CCc1nc(N)nc(N)c1-c1ccc(Cl)cc1` [Pyrimethamine, pyrimethamine, reference compound]: the EC50 was found to be 18200 ± 4540 nM with P. falciparum W2 strain (setting [4]) and 37 ± 7 nM with P. falciparum 3D7 strain (setting [5]). Besides, the “SI^b” value in the series with P. falciparum W2 strain is on record as 5.5. Besides, the “SI^a” value in the series with P. falciparum 3D7 strain is listed as 2,702. Also, the CC50 at 72 h in series [3] is more than 100 µM.
